{"source": "patent US20100099561A1", "about": "“HETEROBICYCLIC ALKYLTHIO-BRIDGED ISOXAZOLINES” (E.I. DU PONT DE NEMOURS AND COMPANY, priority 2008, published 2010)", "type_in_all_cases": "in vivo", "key": {"[1]": {"system": "giant foxtail (Setaria faberii)", "assay": "Test B preemergence, giant foxtail", "settings": "scale 0 to 100", "from_the_text": "(§1) Seeds of plant species selected from blackgrass (Alopecurus myosuroides), downy bromegrass (Bromus tectorum), green foxtail (Setaria viridis), Italian ryegrass (Lolium multiflorum), wheat (Triticum aestivum), wild oat (Avena fatua), catchweed bedstraw (Galium aparine), bermudagrass (Cynodon dactylon), Surinam grass (Brachiaria decumbens), cocklebur (Xanthium strumarium), corn (Zea mays), large crabgrass (Digitaria sanguinalis), woolly cupgrass (Eriochloa villosa), giant foxtail (Setaria faberii), goosegrass (Eleusine indica), johnsongrass (Sorghum halepense), kochia (Kochia scoparia), lambsquarters (Chenopodium album), morningglory (Ipomoea coccinea), nightshade (eastern black nightshade, Solanum ptycanthum), yellow nutsedge (Cyperus esculentus), pigweed (Amaranthus retroflexus), ragweed (common ragweed, Ambrosia elatior), soybean (Glycine max), sunflower (common oilseed sunflower, Helianthus annuus), Russian thistle (Salsola kali), and velvetleaf (Abutilon theophrasti) were planted into a blend of loam soil and sand and treated preemergence with test compounds formulated in a non-phytotoxic solvent mixture which included a surfactant. Treated plants and controls were maintained in a greenhouse for 13 to 15 days, after which time all species were compared to controls and visually evaluated. Plant response ratings, summarized in Table B, are based on a scale of 0 to 100 where 0 is no effect and 100 is complete control. A dash (-) response means no test result."}, "[2]": {"system": "corn (Zea mays)", "assay": "Test B preemergence, corn", "settings": "scale 0 to 100", "from_the_text": "as §1"}, "[3]": {"system": "giant foxtail (Setaria faberi)", "assay": "Test A postemergence, giant foxtail", "settings": "0 to 100 scale (0 no effect, 100 complete control)", "how_it_was_run": "(§2)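 Species planted together in a loam soil and sand blend received compound either as a preemergence soil spray or as a postemergence treatment when 2–10 cm tall with one to two leaves. About ten days later, injury was visually rated relative to untreated plants on a 0–100 scale.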"}, "[4]": {"system": "corn (Zea mays)", "assay": "Test A postemergence, corn", "settings": "0 to 100 scale (0 no effect, 100 complete control)", "how_it_was_run": "as §2"}, "[5]": {"system": "johnsongrass (Sorghum halepense)", "assay": "Test B preemergence, johnsongrass", "settings": "scale 0 to 100", "from_the_text": "as §1"}, "[6]": {"system": "barnyardgrass (Echinochloa crus-galli)", "assay": "Test B flooded paddy test, barnyardgrass", "settings": "Flood", "how_it_was_run": "(§3)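 2-leaf plants; pots flooded 3 cm above soil; compound added to paddy water; depth maintained. Greenhouse 13–15 d. Visual rating vs controls, 0 (no effect) to 100 (complete control); dash = no result.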"}, "[7]": {"system": "giant foxtail (Setaria faberi)", "assay": "Test A preemergence, giant foxtail", "settings": "0 to 100 scale (0 no effect, 100 complete control)", "how_it_was_run": "as §2"}, "[8]": {"system": "sunflower (common oilseed sunflower, Helianthus annuus)", "assay": "Test B preemergence, sunflower", "settings": "Preemergence, scale 0 to 100", "from_the_text": "as §1"}, "[9]": {"system": "cocklebur (Xanthium strumarium)", "assay": "Test B preemergence, cocklebur", "settings": "scale 0 to 100", "from_the_text": "as §1"}, "[10]": {"system": "corn (Zea mays)", "assay": "Test A preemergence, corn", "settings": "0 to 100 scale (0 no effect, 100 complete control)", "how_it_was_run": "as §2"}, "[11]": {"system": "barnyardgrass (Echinochloa crus-galli)", "assay": "Test A preemergence, barnyardgrass", "settings": "0 to 100 scale (0 no effect, 100 complete control)", "how_it_was_run": "as §2"}, "[12]": {"system": "velvetleaf (Abutilon theophrasti)", "assay": "Test A preemergence, velvetleaf", "settings": "0 to 100 scale (0 no effect, 100 complete control)", "how_it_was_run": "as §2"}, "[13]": {"system": "pigweed (Amaranthus retroflexus)", "assay": "Test A postemergence, pigweed", "settings": "0 to 100 scale (0 no effect, 100 complete control)", "how_it_was_run": "as §2"}, "[14]": {"system": "ducksalad (Heteranthera limosa)", "assay": "Test B flooded paddy test, ducksalad", "settings": "Flood, scale 0 to 100", "how_it_was_run": "as §3"}, "[15]": {"system": "green foxtail (Setaria viridis)", "assay": "Test B preemergence, green foxtail", "settings": "scale 0 to 100", "from_the_text": "as §1"}, "[16]": {"system": "goosegrass (Eleusine indica)", "assay": "Test B preemergence, goosegrass", "settings": "scale 0 to 100", "from_the_text": "as §1"}, "[17]": {"system": "large crabgrass (Digitaria sanguinalis)", "assay": "Test A preemergence, large crabgrass", "settings": "0 to 100 scale (0 no effect, 100 complete control)", "how_it_was_run": "as §2"}, "[18]": {"system": "velvetleaf (Abutilon theophrasti)", "assay": "Test A postemergence, velvetleaf", "settings": "0 to 100 scale (0 no effect, 100 complete control)", "how_it_was_run": "as §2"}, "[19]": {"system": "rice (Oryza sativa)", "assay": "Test B flooded paddy test, rice", "settings": "Flood, scale 0 to 100", "how_it_was_run": "as §3"}, "[20]": {"system": "umbrella sedge (Cyperus difformis)", "assay": "Test B flooded paddy test, umbrella sedge", "settings": "Flood, scale 0 to 100", "how_it_was_run": "as §3"}}}
{"smiles": "CC1(C)CC(S(=O)(=O)Cc2c(C(F)(F)C(F)(F)F)nc3n(c2=O)CCCC3)=NO1", "note": "[Compound 21]", "values": [{"measurement": "Plant response rating, Foxtail, Giant", "setting": "[1]; 16 g ai/ha", "result": 0}, {"measurement": "Plant response rating, Foxtail, Giant", "setting": "[1]; 31 g ai/ha", "result": 60}, {"measurement": "Plant response rating, Foxtail, Giant", "setting": "[1]; 62 g ai/ha", "result": 80}, {"measurement": "Plant response rating, Foxtail, Giant", "setting": "[1]; 125 g ai/ha", "result": 85}, {"measurement": "Plant response rating, Corn", "setting": "[2]; 16 g ai/ha", "result": 0}, {"measurement": "Plant response rating, Corn", "setting": "[2]; 31 g ai/ha", "result": 0}, {"measurement": "Plant response rating, Corn", "setting": "[2]; 62 g ai/ha", "result": 0}, {"measurement": "Plant response rating, Corn", "setting": "[2]; 125 g ai/ha", "result": 10}, {"measurement": "Plant response rating, Foxtail, Giant", "setting": "[3]; 125 g ai/ha", "result": 60}, {"measurement": "Plant response rating, Foxtail, Giant", "setting": "[3]; 500 g ai/ha", "result": 70}, {"measurement": "Plant response rating, Corn", "setting": "[4]; 125 g ai/ha", "result": 0}, {"measurement": "Plant response rating, Corn", "setting": "[4]; 500 g ai/ha", "result": 0}, {"measurement": "Plant response rating, Johnsongrass", "setting": "[5]; 16 g ai/ha", "result": 0}, {"measurement": "Plant response rating, Johnsongrass", "setting": "[5]; 31 g ai/ha", "result": 30}, {"measurement": "Plant response rating, Johnsongrass", "setting": "[5]; 62 g ai/ha", "result": 60}, {"measurement": "Plant response rating, Johnsongrass", "setting": "[5]; 125 g ai/ha", "result": 98}, {"measurement": "Plant response rating, Barnyardgrass", "setting": "[6]; 62 g ai/ha, scale 0 to 100", "result": 0}, {"measurement": "Plant response rating, Barnyardgrass", "setting": "[6]; 250 g ai/ha, scale 0 to 100 (0 no effect, 100 complete control)", "result": 0}, {"measurement": "Plant response rating, Foxtail, Giant", "setting": "[7]; 125 g ai/ha", "result": 90}, {"measurement": "Plant response rating, Foxtail, Giant", "setting": "[7]; 500 g ai/ha", "result": 100}, {"measurement": "Plant response rating, Sunflower", "setting": "[8]; 16 g ai/ha", "result": 0}, {"measurement": "Plant response rating, Sunflower", "setting": "[8]; 31 g ai/ha", "result": 0}, {"measurement": "Plant response rating, Sunflower", "setting": "[8]; 62 g ai/ha", "result": 0}, {"measurement": "Plant response rating, Sunflower", "setting": "[8]; 125 g ai/ha", "result": 10}, {"measurement": "Plant response rating, Cocklebur", "setting": "[9]; 16 g ai/ha", "result": 0}, {"measurement": "Plant response rating, Cocklebur", "setting": "[9]; 31 g ai/ha", "result": 0}, {"measurement": "Plant response rating, Cocklebur", "setting": "[9]; 62 g ai/ha", "result": 0}, {"measurement": "Plant response rating, Cocklebur", "setting": "[9]; 125 g ai/ha", "result": 0}, {"measurement": "Plant response rating, Corn", "setting": "[10]; 125 g ai/ha", "result": 0}, {"measurement": "Plant response rating, Corn", "setting": "[10]; 500 g ai/ha", "result": 0}, {"measurement": "Plant response rating, Barnyardgrass", "setting": "[11]; 125 g ai/ha", "result": 90}, {"measurement": "Plant response rating, Barnyardgrass", "setting": "[11]; 500 g ai/ha", "result": 100}, {"measurement": "Plant response rating, Velvetleaf", "setting": "[12]; 125 g ai/ha", "result": 0}, {"measurement": "Plant response rating, Velvetleaf", "setting": "[12]; 500 g ai/ha", "result": 60}, {"measurement": "Plant response rating, Pigweed", "setting": "[13]; 125 g ai/ha", "result": 0}, {"measurement": "Plant response rating, Pigweed", "setting": "[13]; 500 g ai/ha", "result": 10}, {"measurement": "Plant response rating, Ducksalad", "setting": "[14]; 62 g ai/ha", "result": 0}, {"measurement": "Plant response rating, Ducksalad", "setting": "[14]; 250 g ai/ha", "result": 0}, {"measurement": "Plant response rating, Foxtail, Green", "setting": "[15]; 16 g ai/ha", "result": 0}, {"measurement": "Plant response rating, Foxtail, Green", "setting": "[15]; 31 g ai/ha", "result": 45}, {"measurement": "Plant response rating, Foxtail, Green", "setting": "[15]; 62 g ai/ha", "result": 100}, {"measurement": "Plant response rating, Foxtail, Green", "setting": "[15]; 125 g ai/ha", "result": 100}, {"measurement": "Plant response rating, Goosegrass", "setting": "[16]; 16 g ai/ha", "result": 50}, {"measurement": "Plant response rating, Goosegrass", "setting": "[16]; 31 g ai/ha", "result": 98}, {"measurement": "Plant response rating, Goosegrass", "setting": "[16]; 62 g ai/ha", "result": 100}, {"measurement": "Plant response rating, Goosegrass", "setting": "[16]; 125 g ai/ha", "result": 100}, {"measurement": "Plant response rating, Crabgrass, Large", "setting": "[17]; 125 g ai/ha", "result": 90}, {"measurement": "Plant response rating, Crabgrass, Large", "setting": "[17]; 500 g ai/ha", "result": 100}, {"measurement": "Plant response rating, Velvetleaf", "setting": "[18]; 125 g ai/ha", "result": 0}, {"measurement": "Plant response rating, Velvetleaf", "setting": "[18]; 500 g ai/ha", "result": 10}, {"measurement": "Plant response rating, Rice", "setting": "[19]; 62 g ai/ha", "result": 0}, {"measurement": "Plant response rating, Rice", "setting": "[19]; 250 g ai/ha", "result": 0}, {"measurement": "Plant response rating, Sedge, Umbrella", "setting": "[20]; 62 g ai/ha", "result": 0}, {"measurement": "Plant response rating, Sedge, Umbrella", "setting": "[20]; 250 g ai/ha", "result": 0}]}
